Measurements from publication PMC9775191, “A Subset Screen of the Compounds Australia Scaffold Library Identifies 7-Acylaminodibenzoxazepinones as Potent and Selective Hits for Anti-Giardia Drug Discovery” (Biomedicines, 2022).

Test system: G. duodenalis BRIS/91/HEPU/1279
Assay: Primary Giardia screen at 10 µM (live-cell imaging, automated counting)
Assay type: cell-based, Giardia duodenalis
Procedure: Each compound was assessed in singlicate, at a final concentration of 10 μM (0.4 μL of a 5 mM stock; diluted to a final volume of 200 μL in culture medium; 0.2% DMSO). […] Plates were incubated in sealed chambers filled with 3% O2, 5% CO2 in N2 and growth was assessed at 24 and 48 h using live cell imaging and automated counting as previously described. Growth inhibition was calculated by subtracting media only background counts and determining percentage growth relative to vehicle (0.2% DMSO) controls. The reliability of these assays was assessed by calculating Z’ factors for each plate as previously described.

SMILES | % Inhibition n=1 48h (48 h, first singlicate assay) [%] | also measured
Cc1ccc(-c2ncc(C(=O)NC3CCCCCC3)c(C)n2)cc1 [SN00790958] | 0.0 | –
O=C(NC1CCN(c2cc(-c3cccs3)n[nH]2)C1)c1ccc2[nH]cnc2c1 (stereo not drawn) [SN00800411] | 29.6 | –
Cc1ccnc(N2CCCC(C(=O)N3CC=C(c4ccccc4)CC3)C2)n1 (stereo not drawn) [SN00795039] | 57.6 | Average % Inhibition 24h (24 h): 18.0%; % Inhibition n=1 24h (24 h, first singlicate assay): 29.9%; % Inhibition n=2 24h (24 h, re-assessment): 6.1%; Average % Inhibition 48h (48 h): 46.1%; % Inhibition n=2 48h (48 h, re-assessment): 34.6%
Cc1cc(C(=O)COC(=O)C2(O)CCCCC2)c(C)n1-c1c(C)n(C)n(-c2ccccc2)c1=O [SN00773547] | 1.1 | –
CC(C)c1csc(-c2ccc(S(=O)(=O)NCc3ccc(Cl)cc3)s2)n1 [SN00798864] | 0.0 | –
CC(C)(C)c1ccc(C(=O)N2CCC3(CC2)NC(c2ccccc2)=NO3)cc1 [SN00801741] | 0.0 | –
CSCCC(NS(=O)(=O)c1ccc(C)cc1)C(=O)Nc1nc(C)c(-c2ccccn2)s1 (stereo not drawn) [SN00779415] | 0.0 | –
CCn1c(C)c(C2=CCN(S(=O)(=O)c3ccc(F)cc3)CC2)c2ccccc21 [SN00785221] | 17.2 | –
O=C(CCNS(=O)(=O)c1cccnc1)N1CCCC(c2nc3ccccc3o2)C1 (stereo not drawn) [SN00780535] | 0.0 | –
Cc1noc(-c2c(C)sc(C)c2S(=O)(=O)NCc2ccccc2)c1C [SN00789144] | 30.5 | –
COc1cccc(N2CCN(C(=O)C3CCN(c4nc(NC(C)=O)ns4)CC3)CC2)c1 [SN00800160] | 16.2 | –
CCOC(=O)c1ccc(NC(=O)Cn2c(=O)cc(-c3nc(C)no3)c3ccccc32)cc1 [SN00798707] | 2.1 | –
Cc1cccc(C)c1NC(=O)c1cc(-c2ccccc2)nc2c1cnn2Cc1cccnc1 [SN00776937] | 17.5 | –
Cc1csc(-n2nc(C)c(CC(=O)N3CCN(c4ccccc4)CC3)c2O)n1 [SN00786646] | 34.3 | –
O=C(Nc1cccc(C(=O)N2CCCC2C(=O)NCCc2ccccc2)c1)c1cccs1 (stereo not drawn) [SN00794771] | 3.7 | –
CCn1cc(CN(C)C(=O)c2cnn3c(C(F)F)cc(-c4ccc(OC)cc4)nc23)c(C)n1 [SN00783837] | 29.0 | –
Cn1cc(C(=O)N2CCCC2C2CCCCC2)ccc1=O (stereo not drawn) [SN00779264] | 13.1 | –
CCOc1cc(C(=O)Nc2ccc(C3=CSC4=NCCCN34)cc2)ccc1OC(F)F [SN00775741] | 4.5 | –
COCCNc1c(-c2ccc(O)cc2)nc2sc3cc(C)ccc3n12 [SN00795351] | 0.0 | –
c1ccc(-n2nnnc2Oc2ccc(-c3nc4ccccc4s3)cc2)cc1 [SN00775768] | 19.1 | –

SMILES | % Inhibition n=1 48h (48 h, first singlicate assay) [%] | also measured
Cc1cc(C)c(S(=O)(=O)N2CCc3[nH]cnc3C2)cc1C [SN00798786] | 0.0 | –
COCCN1C(=O)CCC(C(=O)O)C1c1cnn(-c2ccccc2)c1 (stereo not drawn) [SN00783261] | 0.0 | –
O=C(c1cn2ccnc(-c3ccccc3)c2n1)N1CCCCC1 [SN00801929] | 30.6 | –
O=C(c1ccco1)N1CCC(NS(=O)(=O)c2ccc(Cl)cc2)CC1 [SN00795232] | 0.0 | –
Cc1cccc(CN2CCC3(CC2)N=C(c2ccc(C)c(C)c2)C(=O)N3)c1 [SN00792562] | 12.3 | –
COc1cccc(C(=O)N(CC2CCOC2)C2CC2)c1 (stereo not drawn) [SN00801182] | 0.0 | –
COc1cc(OC)c(NC(=O)N2CCN(c3nc4ccccc4n3C)CC2)cc1Cl [SN00794807] | 0.0 | –
CCC(OC1CCCC1)C(=O)N1CCN(c2nccn2C)CC1 (stereo not drawn) [SN00782691] | 0.0 | –
O=C(NCCCN1CCCC1)c1ccc2c(c1)N(CC(=O)N1CCCC1)C(=O)CO2 [SN00791845] | 0.0 | –
CN1CCC(OC2CCN(C(=O)CC3CCCC3)CC2)CC1 [SN00801545] | 26.4 | –
Cc1noc(C)c1S(=O)(=O)N1CCC(C(=O)NCC(c2ccccc2)N(C)C)CC1 (stereo not drawn) [SN00775659] | 0.0 | –
O=C(NCc1ccco1)N1CC2C3CCC(C3)C21 (stereo not drawn) [SN00773389] | 2.6 | –
COc1ccc(-n2nnc(-c3nsc(Nc4ccc(Cl)cc4)n3)c2C)cc1 [SN00798137] | 11.6 | –
O=C(CCn1ccn2nc(-c3ccccc3Cl)cc2c1=O)NCc1ccc(F)cc1 [SN00799415] | 0.0 | –
Cc1ccc2oc(-c3noc(C(=O)NCC4CCCO4)n3)c(C)c2c1 (stereo not drawn) [SN00795207] | 0.0 | –
Cc1cccc(-c2noc(CN3CC(n4cc(C)cn4)C3)n2)c1 [SN00772979] | 6.1 | –
CC(=O)N1CCN(Cc2nc3cc(Cl)ccc3n2C)CC1 [SN00773871] | 0.0 | –
Cc1ccc(Cl)cc1NC(=O)C1CC2CSCN2C12C(=O)Nc1ccccc12 (stereo not drawn) [SN00789076] | 17.2 | –
Cn1c(=O)c2cc(C(=O)NC3CCSC3=O)n(Cc3ccccc3)c2n(C)c1=O (stereo not drawn) [SN00772623] | 25.0 | –
Cc1noc2ncnc(N3CCCC(C(=O)N4CCCCCC4)C3)c12 (stereo not drawn) [SN00788609] | 0.0 | –

SMILES | % Inhibition n=1 48h (48 h, first singlicate assay) [%] | also measured
Cc1noc(-c2nn(C)c3c2CN(S(=O)(=O)Cc2cccc(F)c2)CC3)n1 [SN00796798] | 14.3 | –
COc1ccc(S(=O)(=O)N2CCN(c3cc(=O)n4nc(-c5ccccc5C)sc4n3)CC2)cc1 [SN00789606] | 10.6 | –
CCC(C)NC(=O)CC1Sc2ncccc2N(C)C1=O (stereo not drawn) [SN00799120] | 11.7 | –
Cc1nn(C)c(N2CCN(C(C)c3nc4ccccc4s3)CC2)c1[N+](=O)[O-] (stereo not drawn) [SN00772279] | 10.6 | –
CCCNC(=O)c1cn(C)nc1S(=O)(=O)N1CCC(C)CC1 [SN00798692] | 3.5 | –
CCCN1CCN(C(=O)C2=C(C)C(=O)OC23CCN(S(=O)(=O)CC)CC3)CC1 [SN00791149] | 0.0 | –
COCCS(=O)(=O)N1CCCC1Cn1ccnc1 (stereo not drawn) [SN00782604] | 0.0 | –
CC(C)(C)OC(=O)N1CCN(C(=O)C2CCCNC2)CC1 (stereo not drawn) [SN00769730] | 15.1 | –
Cc1ccc(NC(=O)Nc2ccc3c(c2)CN(Cc2ccccc2)C3)c(C)c1 [SN00796327] | 41.2 | –
Cc1ccc(-c2nc3ccccc3n2Cc2cccc(F)c2)o1 [SN00788939] | 16.3 | –
CCNC(=O)N1CCCC(c2cccc(C(=O)NCCC3=CCCCC3)c2)C1 (stereo not drawn) [SN00790923] | 6.9 | –
CCn1c(CN2Cc3ccccc3C[C@H]2C(N)=O)nc2cc(S(=O)(=O)N3CCCCC3)ccc21 [SN00773766] | 10.0 | –
Cc1cc(C(=O)N2CCCN(Cc3cnn(C)c3)CC2)on1 [SN00782463] | 0.0 | –
CCCn1cc(S(=O)(=O)c2ccc(OC)cc2)c(=O)c2cc(F)c(N3CCC(C)CC3)cc21 [SN00787795] | 0.0 | –
CCc1ccc(-n2ccc(=O)c(-c3nc(-c4cccc(Cl)c4)no3)n2)cc1 [SN00798039] | 4.9 | –
CCCN(C)C(=O)Cn1c(=O)n(-c2ccc(F)cc2)c(=O)c2ccccc21 [SN00802614] | 32.9 | –
CCCNc1nc(N2CCN(CC)CC2)c2cnn(C)c2n1 [SN00792083] | 10.1 | –
Cc1csc(/C(=C\c2cc(C)n(-c3ccnn3C(C)C)c2C)CN)n1 [SN00770781] | 5.0 | –
